Data from paper PMC11940505, “Antivirulence Properties of Kuraridin Against Methicillin-Resistant Staphylococcus aureus (MRSA)” (Biomedicines, 2025).

Target: T1, Sortase A (SrtA) (Staphylococcus aureus, UniProt Q2FV99)
T1 construct: recombinant SrtA enzyme (BPS Bioscience)
Assay: fluorescence cleavage assay of Abz-LPETG-K(Dnp)-NH2 with recombinant SrtA
Assay type: biochemical

T1 sequence (Q2FV99 whole entry): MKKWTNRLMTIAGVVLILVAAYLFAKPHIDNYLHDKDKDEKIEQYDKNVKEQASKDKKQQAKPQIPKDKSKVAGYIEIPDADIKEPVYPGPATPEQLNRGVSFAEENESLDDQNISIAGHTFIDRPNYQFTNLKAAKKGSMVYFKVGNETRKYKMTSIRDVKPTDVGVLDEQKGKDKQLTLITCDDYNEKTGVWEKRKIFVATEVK

Structure (SMILES): C=C(C)[C@H](CC=C(C)C)Cc1c(O)cc(OC)c(C(=O)/C=C/c2ccc(O)cc2O)c1O [Kuraridin, (E)-1-[2,4-dihydroxy-6-methoxy-3-(5-methyl-2-prop-1-en-2-ylhex-4-enyl)phenyl]-3-(2,4-dihydroxyphenyl)prop-2-en-1-one]
- fluorescence cleavage assay of Abz-LPETG-K(Dnp)-NH2 with recombinant SrtA: LogIC50 1.699 ± 0.055
